Measured values: patent US20240368192A1, “Nitrogen-Containing Heterocyclic Compound, and Preparation Method Therefor, Intermediate Thereof, and Application Thereof” (Shanghai Allist Pharmaceuticals Co., Ltd., priority 2021, published 2024)
Counter-ions that a name gives are not always drawn.

Experiments:
[1] = target: Ba/F3 KRAS-G12V cells (Homo sapiens, UniProt P01116, G12V, cells depend on it); test: Proliferation inhibitory activity on Ba/F3 KRAS-G12V stably transfected cell line (CellTiter-Glo, 72 hours); type: cell-based, mouse; settings: read-out: Ba/F3 KRAS-G12V IC50
Description: (§1) Test Example 1: Proliferation Inhibitory Activity on Ba/F3 KRAS-G12D, Ba/F3 KRAS-G12V Stably Transfected Cell Lines and AGS Tumor Cell Lines Containing KRAS G12D Mutations
(§2) To determine the proliferation inhibitory activity of the compounds in vitro on mouse pro-B cells Ba/F3 (Ba/F3 KRAS-G12D and Ba/F3 KRAS-G12V cells stably expressing KRAS G12D/V mutant proteins) and gastric cancer AGS cells expressing KRAS G12D mutant protein.
(§3) Cell sources. Ba/F3 KRAS-G12D and Ba/F3 KRAS-G12V were purchased from Kyinno Biotech (Beijing) Co., Ltd, Cat. No.: KC-1259 and KC-1261, respectively; AGS was purchased from Shanghai Bioleaf Biotech Co., Ltd.
(§4) Cells in the logarithmic growth phase were seeded in a 96-well plate (8000, 8000, 4000 cells/well, 90 μL/well for Ba/F3 KRAS-G12D, Ba/F3 KRAS-G12V, and AGS cells respectively), incubated at 37° C. for 1 day with 5% CO2, and then a gradient dilution of the test compound was added thereto (compounds 1 to 28 and comparative compounds). The details were as follows, the compound stock solution (10 mM) previously dissolved in DMSO was diluted to 10 gradient concentrations at a fold ratio (4 fold) and diluted to 10 fold of the target concentration in another 96-well plate with culture medium, and then 10 μL/well of the compound solution was added to the 96-well plate seeded with cells to reach the target concentration (10000, 2500, 625, 156, 39, 10, 2.5, 0.6, 0.15, 0.04 nM). Each concentration was provided with 3 duplicate wells and a blank control. After continued incubation at 37° C. and 5% CO2 for 72 hours, 50 μL of CellTiter-Glo*2.0 reagent (luciferase ATP bioluminescence detection reagent, purchased from Promega, Cat. No.: G9243) was added to each well, shaken for 2 minutes, and incubated at room temperature for 8 minutes, and then fluorescence luminescence intensity was detected (light collection time was 100 ms). The inhibitory rate of compounds with various concentrations on cell proliferation was calculated. Cell proliferation inhibition rate (%)=[(luminous intensitycontrol group containing cell culture medium for 72 hour−luminous intensitycompound group for 72 hour)/(luminous intensitycontrol group containing cell culture medium for 72 hours−luminous intensitycontrol group without cell culture medium for 72 hour)]×100%. GraphPad Prism 8.3 software was used to analyze the data, and nonlinear S-curve regression was used to fit the data to obtain a dose-effect curve, from which the IC50 value was calculated.

[2] = target: Ba/F3 KRAS-G12D cells (Homo sapiens, UniProt P01116, G12D, cells depend on it); test: Proliferation inhibitory activity on Ba/F3 KRAS-G12D stably transfected cell line (CellTiter-Glo, 72 hours); type: cell-based, mouse; settings: read-out: Ba/F3 KRAS-G12D IC50
Description: as §1, §2, §3, §4

[3] = test system: AGS cells; test: Proliferation inhibitory activity on AGS tumor cell line containing KRAS G12D mutation (CellTiter-Glo, 72 hours); type: cell-based; settings: Homo sapiens
Description: as §1, §2, §3, §4

Ba/F3 KRAS-G12V cells, sequence (P01116 whole entry G12V): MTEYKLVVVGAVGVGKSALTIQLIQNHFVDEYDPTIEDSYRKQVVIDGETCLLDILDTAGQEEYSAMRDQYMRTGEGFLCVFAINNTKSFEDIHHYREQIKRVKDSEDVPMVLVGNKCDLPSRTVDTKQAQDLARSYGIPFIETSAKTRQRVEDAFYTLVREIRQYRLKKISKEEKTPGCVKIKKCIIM
Ba/F3 KRAS-G12D cells, sequence (P01116 whole entry G12D): as the sequence (P01116 whole entry G12V) above, with V12D counted along it

Cc1cc(N)nc(-c2ncc3c(N4C[C@@H](N)C[C@H](O)C4)nc(OC[C@@]45CCCN4C[C@H](F)C5)nc3c2F)c1C(F)(F)F [Compound 1, (3S,5S)-5-Amino-1-(7-(6-amino-4-methyl-3-(trifluoromethyl)pyridin-2-yl)-8-fluoro-2-(((2R,7aS)-2-fluorohexahydro-1H-pyrrolizin-7a-yl)methoxy)pyrido[4,3-d]pyrimidin-4-yl)piperidin-3-ol bis(2,2,2-trifluoroacetate)]
GI50 [1]: 5 to 10 µM

Cc1cc(N)nc(-c2ncc3c(N4CCC[C@H](N)C4)nc(OC[C@@]45CCCN4C[C@H](F)C5)nc3c2F)c1C(F)(F)F [Compound 2, 6-(4-((S)-3-Aminopiperidin-1-yl)-8-fluoro-2-(((2R,7aS)-2-fluorohexahydro-1H-pyrrolizin-7a-yl)methoxy)pyrido[4,3-d]pyrimidin-7-yl)-4-methyl-5-(trifluoromethyl)pyridin-2-amine tetrakis(2,2,2-trifluoroacetate)]
GI50 [1]: 5 to 10 µM

N[C@H]1CCCN(c2nc(OC[C@@]34CCCN3C[C@H](F)C4)nc3c(F)c(-c4cc(O)cc5ccccc45)ncc23)C1 [Compound 3, 4-(4-((S)-3-Aminopiperidin-1-yl)-8-fluoro-2-(((2R,7aS)-2-fluorohexahydro-1H-pyrrolizin-7a-yl)methoxy)pyrido[4,3-d]pyrimidin-7-yl)naphthalen-2-ol]
GI50 [1]: 5 to 10 µM

N[C@H]1C[C@H](O)CN(c2nc(OC[C@@]34CCCN3C[C@H](F)C4)nc3c(F)c(-c4cc(O)cc5ccccc45)ncc23)C1 [Compound 4, (3S,5S)-5-Amino-1-(8-fluoro-2-(((2R,7aS)-2-fluorohexahydro-1H-pyrrolizin-7a-yl)methoxy)-7-(3-hydroxynaphthalen-1-yl)pyrido[4,3-d]pyrimidin-4-yl)piperidin-3-ol]
GI50 [1]: 5 to 10 µM

N[C@@H]1CCCN(c2nc(OC[C@@]34CCCN3C[C@H](F)C4)nc3c(F)c(-c4cc(O)cc5ccccc45)ncc23)C1 [Compound 5, 4-(4-((R)-3-Aminopiperidin-1-yl)-8-fluoro-2-(((2R,7aS)-2-fluorohexahydro-1H-pyrrolizin-7a-yl)methoxy)pyrido[4,3-d]pyrimidin-7-yl)naphthalen-2-ol]
GI50 [1]: 5 to 10 µM

C#Cc1c(F)ccc2cc(O)cc(-c3ncc4c(N5CCC[C@H](N)C5)nc(OC[C@@]56CCCN5C[C@H](F)C6)nc4c3F)c12 [Compound 7, 4-(4-((S)-3-Aminopiperidin-1-yl)-8-fluoro-2-(((2R,7aS)-2-fluorohexahydro-1H-pyrrolizin-7a-yl)methoxy)pyrido[4,3-d]pyrimidin-7-yl)-5-ethynyl-6-fluoronaphthalen-2-ol]
GI50 [1]: 5 to 10 µM
GI50 [2]: 5 to 10 µM

C#Cc1c(F)ccc2cc(O)cc(-c3ncc4c(N5C[C@@H](N)C[C@H](O)C5)nc(OC[C@@]56CCCN5C[C@H](F)C6)nc4c3F)c12 [Compound 8, (3S,5S)-5-Amino-1-(7-(8-ethynyl-7-fluoro-3-hydroxynaphthalen-1-yl)-8-fluoro-2-(((2R,7aS)-2-fluorohexahydro-1H-pyrrolizin-7a-yl)methoxy)pyrido[4,3-d]pyrimidin-4-yl)piperidin-3-ol]
GI50 [1]: 5 to 10 µM

C#Cc1c(F)ccc2cc(O)cc(-c3ncc4c(N5C[C@@H]6C[C@]6(N)C5)nc(OC[C@@]56CCCN5C[C@H](F)C6)nc4c3F)c12 [Compound 9, 4-(4-((1R,5S)-1-Amino-3-azabicyclo[3.1.0]hexan-3-yl)-8-fluoro-2-(((2R,7aS)-2-fluorohexahydro-1H-pyrrolizin-7a-yl)methoxy)pyrido[4,3-d]pyrimidin-7-yl)-5-ethynyl-6-fluoronaphthalen-2-ol]
GI50 [1]: 5 to 10 µM
GI50 [2]: 5 to 10 µM

C#Cc1c(F)ccc2cc(O)cc(-c3ncc4c(N5C[C@@H]6[C@@H](N)[C@@H]6C5)nc(OC[C@@]56CCCN5C[C@H](F)C6)nc4c3F)c12 [Compound 11, 4-(4-((1R,5S,6R)-6-Amino-3-azabicyclo[3.1.0]hexan-3-yl)-8-fluoro-2-(((2R,7aS)-2-fluorohexahydro-1H-pyrrolizin-7a-yl)methoxy)pyrido[4,3-d]pyrimidin-7-yl)-5-ethynyl-6-fluoronaphthalen-2-ol dihydrochloride]
GI50 [1]: 5 to 10 µM

C#Cc1c(F)ccc2cc(O)cc(-c3ncc4c(N5C[C@@H]6[C@H](N)[C@@H]6C5)nc(OC[C@@]56CCCN5C[C@H](F)C6)nc4c3F)c12 [Compound 12, 4-(4-((1R,5S,6S)-6-Amino-3-azabicyclo[3.1.0]hexan-3-yl)-8-fluoro-2-(((2R,7aS)-2-fluorohexahydro-1H-pyrrolizin-7a-yl)methoxy)pyrido[4,3-d]pyrimidin-7-yl)-5-ethynyl-6-fluoronaphthalen-2-ol bis(2,2,2-trifluoroacetate)]
GI50 [1]: 5 to 10 µM

C#Cc1c(F)ccc2cc(O)cc(-c3ncc4c(N5C[C@H](N)C[C@H](O)C5)nc(OC[C@@]56CCCN5C[C@H](F)C6)nc4c3F)c12 [Compound 13, (3S,5R)-5-Amino-1-(7-(8-ethynyl-7-fluoro-3-hydroxynaphthalen-1-yl)-8-fluoro-2-(((2R,7aS)-2-fluorohexahydro-1H-pyrrolizin-7a-yl)methoxy)pyrido[4,3-d]pyrimidin-4-yl)piperidin-3-ol]
GI50 [1]: 5 to 10 µM

C#Cc1c(F)ccc2cc(O)cc(-c3ncc4c(N5C[C@H](N)C[C@@H](O)C5)nc(OC[C@@]56CCCN5C[C@H](F)C6)nc4c3F)c12 [Compound 14, (3R,5R)-5-Amino-1-(7-(8-ethynyl-7-fluoro-3-hydroxynaphthalen-1-yl)-8-fluoro-2-(((2R,7aS)-2-fluorohexahydro-1H-pyrrolizin-7a-yl)methoxy)pyrido[4,3-d]pyrimidin-4-yl)piperidin-3-ol bis(2,2,2-trifluoroacetate)]
GI50 [1]: 5 to 10 µM

C#Cc1c(F)ccc2cc(O)cc(-c3ncc4c(N5CC[C@H](N)C5)nc(OC[C@@]56CCCN5C[C@H](F)C6)nc4c3F)c12 [Compound 15, 4-(4-((S)-3-Aminopyrrolidin-1-yl)-8-fluoro-2-(((2R,7aS)-2-fluorohexahydro-1H-pyrrolizin-7a-yl)methoxy)pyrido[4,3-d]pyrimidin-7-yl)-5-ethynyl-6-fluoronaphthalen-2-ol]
GI50 [1]: 5 to 10 µM
GI50 [2]: 5 to 10 µM

C#Cc1c(F)ccc2cc(O)cc(-c3ncc4c(N5C[C@@H](N)C[C@@H](O)C5)nc(OC[C@@]56CCCN5C[C@H](F)C6)nc4c3F)c12 [Compound 16, (3R,5S)-5-Amino-1-(7-(8-ethynyl-7-fluoro-3-hydroxynaphthalen-1-yl)-8-fluoro-2-(((2R,7aS)-2-fluorohexahydro-1H-pyrrolizin-7a-yl)methoxy)pyrido[4,3-d]pyrimidin-4-yl)piperidin-3-ol bis(2,2,2-trifluoroacetate)]
GI50 [1]: 5 to 10 µM

Cc1cc(N)nc(-c2nc(N)c3c(N4C[C@H]5CC[C@@H](C4)N5)nc(OC[C@@]45CCCN4C[C@H](F)C5)nc3c2F)c1C(F)(F)F [Compound 19, 7-(6-Amino-4-methyl-3-(trifluoromethyl)pyridin-2-yl)-4-((1R,5S)-3,8-diazabicyclo[3.2.1]octan-3-yl)-8-fluoro-2-(((2R,7aS)-2-fluorohexahydro-1H-pyrrolizin-7a-yl)methoxy)pyrido[4,3-d]pyrimidin-5-amine]
GI50 [1]: 5 to 10 µM

C#Cc1c(F)ccc2cc(O)cc(-c3ncc4c(C5=C[C@@H]6CC[C@H](C5)N6)nc(OC[C@@]56CCCN5C[C@H](F)C6)nc4c3F)c12 [Compound 23, 4-(4-((1R,5S)-8-Azabicyclo[3.2.1]oct-3-en-3-yl)-8-fluoro-2-(((2R,7aS)-2-fluorohexahydro-1H-pyrrolizin-7a-yl)methoxy)pyrido[4,3-d]pyrimidin-7-yl)-5-ethynyl-6-fluoronaphthalen-2-ol]
IC50 [3]: 2.5 µM
GI50 [1]: 5 to 10 µM

[2H]C([2H])(Oc1nc(N2C[C@H]3CC[C@@H](C2)N3)c2c(Cl)nc(-c3cc(O)cc4ccc(F)c(C#C)c34)c(F)c2n1)[C@@]12CCCN1C[C@H](F)C2 [Compound 27, 4-(4-((1R,5S)-3,8-Diazabicyclo[3.2.1]octan-3-yl)-5-chloro-8-fluoro-2-(((2R,7aS)-2-fluorotetrahydro-1H-pyrrolizin-7a(5H)-yl)methoxy-d2)pyrido[4,3-d]pyrimidin-7-yl)-5-ethynyl-6-fluoronaphthalen-2-ol]
IC50 [3]: 0.006 µM
GI50 [2]: 0.001 µM
